The text below walks through data of patent publication US20220054588A1, “USE OF SAP FOR THE TREATMENT OF EUROTIOMYCETES FUNGI INFECTIONS” (HUMANITAS MIRASOLE S.P.A., priority 2018, published 2022).

The subject of one experiment is A. fumigatus conidia. Kind of experiment: FACS binding of biotin-conjugated murine SAP to A. fumigatus conidia, with competition. Set-up: species or system Aspergillus fumigatus. The conditions noted are these: Sap 10 μg/ml. As to the method: FIG. 1 depicts the interaction of SAP with A. fumigatus conidia in mice. a) induction of SAP circulating levels after i.t. injection of 5×10^7 A. fumigatus (AF) conidia; LPS, 0.8 mg/Kg. Mean±SD. c) FACS analysis of binding of biotin-conjugated (b-) murine SAP (Sap; 10 μg/ml) to viable dormant or germinating conidia of AF (1×10^8). Human SAP (50 μg/ml) and CRP (50 μg/ml) were also used. Mean±SD of one quadruplicate experiment of two performed.
FIG. 10 depicts the susceptibility to A. fumigatus associated with single or double deficiency for SAP and PTX3. a and b, survival of wt and Apcs^−/−, Ptx3^−/− and Apcs^−/−, Ptx3^−/− mice after i.t. injection of 1×10^8 (a) or 5×10^7 (b) conidia. a, wt, n=9 (a, b); n=9 (a, b); Ptx3^−/−, n=7 (a) or n=10 (b); Ptx3^−/−, n=5 (a) or n=12 (b). a, b, P<0.05, wt vs. Apcs^−/− P<0.01 wt vs. Apcs^−/−, Ptx3^−/−; P=0.06, Apcs^−/−, Ptx3^−/− vs. Ptx3^−/− (Mantel-Cox test). a) Curves of wt and Apcs^−/− refer to the same ones shown in FIG. 2a-c FACS analysis of Sap (range from 0.1 to 10 μg/ml) binding to viable AF conidia (1×10^8) in presence of Ptx3 (50 μg/ml). An anti-Sap monoclonal antibody (non-reactive to Ptx3) was used. Mean±SD of a triplicate. **, P<0.01;***, P<0.005;****, P<0.0001 (unpaired t-test).
(§1) Binding of SAP. Conidia of A. fumigatus and A. flavus (1×10^8 CFU) were cultured 4 and 16 h under static condition in Sabouraud medium to respectively allow conidia swelling and germination. Blastospores and yeast of Candida albicans were prepared as previously described (Santus et al., 2017). Yeast (8×10^6/ml) were incubated at 37° C. for hyphal induction. Formation of hyphae was evaluated under a microscope at different time points until its amount was assessed at 95%. […] After extensive washing, samples were incubated (30 min, r. t.) with Alexa Fluor® 647-conjugated streptavidin and binding was evaluated by FACS as frequency and MFI and visualized by confocal microscopy as described. […]
(In flow cytometry, cells or beads pass a laser one at a time.)

The subject of another experiment is human neutrophils. Kind of experiment: Phagocytosis of A. fumigatus conidia by isolated human neutrophils in normal or complement-depleted human sera. The class given is cell-based. As to the method: FIG. 8 depicts the initiation of classical complement activation at the bases of SAP-mediated phagocytosis. a) fluorescein-labelled AF conidia (1.6×10^6) phagocytosis by freshly isolated human neutrophils (2×10^5) in presence of sera depleted (−) from complement components and the effect of SAP opsonisation after 1 and 30 min AF conidia (2×10^8) opsonisation with 100 μg of human native SAP. 5% (left) or 10% (right) of human sera were used. Mean±SEM;*, P<0.05;**, P<0.01;***, P<0.005;***, P<0.0001 (Mann-Whitney test). b) FACS analysis of C1q deposition on AF conidia (1×10^7) in presence of plasma from wt or Apcs^−/− mice. Mean±SEM;*, P=0.05.
Human neutrophils were isolated from fresh whole blood of healthy volunteers through separation from erythrocytes by 3% dextran (GE Healthcare Life Sciences) density gradient sedimentation followed by Ficoll-Paque PLUS (GE Healthcare Life Sciences) and 62% Percoll® (Sigma-Aldrich) centrifugation as previously described (Moalli et al., 2010). Purity, determined by FACS analysis on forward scatter/side scatter parameters, was routinely >98%. 1×10^5 neutrophils were incubated for 1 and 30 min at 37° C. in 50 μl RPMI-1640 medium with 5 and 10% normal human serum (NS) or complement depleted sera and 1×10^5 FITC-labelled A. fumigatus conidia. Cells were transferred on ice and, after washing with PBS, pH 7.4, containing 10 mM EDTA and 0.2% bovine serum albumin (BSA; Sigma-Aldrich), FITC fluorescence in neutrophils (CD45-positive cells, neutrophils defined as FSC-A^high/SSC-A^high) was analysed by BD FACS Canto™ II Flow Cytometer (BD Biosciences). NS and sera depleted for C3, C1q, MBL, FB and FH were all obtained from CompTech (Complement Technology, Inc., USA).

The test system of another experiment is Candida albicans. Kind of experiment: FACS binding of biotin-conjugated murine SAP to Candida albicans, with competition. As to the method:
FIG. 16 depicts the binding of Sap on Candida. a) FACS analysis of binding of biotin-conjugated (b-) murine SAP (Sap; 10 μg/ml) to bastospore, yeast and hyphae of Candida albicans (1×10^8). Human SAP (50 μg/ml) was also used to compete binding of Sap. […] Survival of wt and Apcs^−/− mice after retroorbital injection of 1×10^6 blastospores of Candida albicans. wt, n=10; Apcs^−/− n=12.
as §1, with “95%. After washing with PBS^2+, pH 7.4, containing 0.01% (vol/vol) Tween-20 ® (Merck-Millipore), Cells (1×10^7 CFU) were incubated (1 h, r. t.) with biotin-labelled murine SAP (R&D Systems) at concentrations ranging from 0.1 to 10 μg/ml in PBS^2+, pH 7.4, containing 2% BSA (Sigma-Aldrich).” for “95%.”

Turning to “human native SAP: Native SAP from human serum purchased by Merck-Millipore; Serum Amyloid P component, SEQ ID NO: 1”, the “competition of murine SAP binding to A. fumigatus conidia” value in the experiment on A. fumigatus conidia (competitor 50 μg/ml) is listed as “competed”. The potentiation of phagocytosis entry in the experiment on human neutrophils (C1q-depleted serum) was “but not”; in the experiment on human neutrophils (C3-depleted serum), “but not”; in the experiment with human neutrophils (MBL-depleted serum 5%), 55.5±17.0%; with human neutrophils (MBL-depleted serum 10%), 19.8±6.1%; in the experiment with human neutrophils (normal human serum 5%), 37.4±10.3%; with human neutrophils (normal human serum 10%), 18.3±2.0%. In the experiment on Candida albicans (competitor 50 μg/ml), the “competition of Sap binding to Candida albicans” value was “competed”.

B1: recombinant murine SAP: recombinant murine SAP from mouse myeloma cell line NSO (R&D Systems) (protein, UniProt P12246 21-224, looked up)
Serum amyloid P-component: QTDLKRKVFVFPRESETDHVKLIPHLEKPLQNFTLCFRTYSDLSRSQSLFSYSVKGRDNELLIYKEKVGEYSLYIGQSKVTVRGMEEYLSPVHLCTTWESSSGIVEFWVNGKPWVKKSLQREYTVKAPPSIVLGQEQDNYGGGFQRSQSFVGEFSDLYMWDYVLTPQDILFVYRDSPVNPNILNWQALNYEINGYVVIRPRVWD
Turning to B1, the “binding to A. fumigatus conidia” value in the experiment with A. fumigatus conidia (FACS and confocal microscopy) was “bound viable dormant, swollen and germinated conidia”. Further, the “binding to blastospores, yeasts and hyphae of Candida albicans” value in the experiment on Candida albicans (Sap 10 μg/ml) was “bound with low affinity”.
